Measured values from patent publication US20070128217A1 (priority 2003, published 2007).

How the values were obtained:
[1] = tested on: control sera (pooled serum of ten healthy LUMC hospital workers; commercial negative donor pooled serum from the Dutch bloodbank); format: binding, human; parameters: Binding of Control serum LUMC to linear peptides / Binding of Control serum Blood-bank to linear peptides / Binding of Control serum LUMC to looped peptides / Binding of Control Serum Blood-Bank to Looped peptides / Binding of Control serum LUMC to linear peptides of the protein M of SARS-CoV Urbani / Binding of Control serum Blood-bank to linear peptides of the protein M of SARS-CoV Urbani / Binding of Control serum LUMC to looped peptides of the protein M of SARS-CoV Urbani / Binding of Control Serum Blood-Bank to Looped peptides of the protein M of SARS-CoV Urbani: unit not given here
[2] = tested on: rabbit serum obtained by immunizing a rabbit with the SARS-CoV strain Frankfurt 1; format: binding; parameters: Binding of a rabbit serum to linear peptides / Binding of a rabbit serum to looped peptides / Rabbit serum linear peptides / Rabbit serum looped peptides / Binding of a rabbit serum to linear peptides of protein N of SARS-CoV Urbani (Rabbit serum linear peptides) / Binding of a rabbit serum to looped/cyclic peptides of protein N of SARS-CoV Urbani (Rabbit serum looped peptides): unit not given here

Sequence	Binding of Control Serum Blood-Bank to Looped peptides [1]	Binding of Control serum Blood-bank to linear peptides [1]	Binding of Control serum LUMC to linear peptides [1]	Binding of Control serum LUMC to looped peptides [1]	Rabbit serum linear peptides [2]	Rabbit serum looped peptides [2]	further results
HPLADNKFALTCTST	0.8	0.7	0.6	0.9	0.5	0.1	
DYCIPYNSVTDTIVV	0.7	0.7	0.6	0.9			Binding of a rabbit serum to linear peptides [2]: 0.1; Binding of a rabbit serum to looped peptides [2]: 0.5
IIMRTFRIAIWNLDV					0.3	0.5	Binding of Control Serum Blood-Bank to Looped peptides of the protein X3 of SARS-CoV Urbani [1]: 0.9; Binding of Control serum Blood-bank to linear peptides of the protein X3 of SARS-CoV Urbani [1]: 0.9; Binding of Control serum LUMC to linear peptides of the protein X3 of SARS-CoV Urbani [1]: 0.7; Binding of Control serum LUMC to looped peptides of the protein X3 of SARS-CoV Urbani [1]: 0.6
VKDPPNVQIHTIDGS	0.5	0.4	0.4	0.6			Binding of a rabbit serum to linear peptides [2]: 0.1; Binding of a rabbit serum to looped peptides [2]: 0.5
NTDHAGSNDNIALLV					0.4	0.4	Binding of Control Serum Blood-Bank to Looped peptides of the protein M of SARS-CoV Urbani [1]: 1.0; Binding of Control serum Blood-bank to linear peptides of the protein M of SARS-CoV Urbani [1]: 0.8; Binding of Control serum LUMC to linear peptides of the protein M of SARS-CoV Urbani [1]: 0.5; Binding of Control serum LUMC to looped peptides of the protein M of SARS-CoV Urbani [1]: 0.9
TDHAGSNDNIALLVQ					0.1	0.2	Binding of Control Serum Blood-Bank to Looped peptides of the protein M of SARS-CoV Urbani [1]: 1.0; Binding of Control serum Blood-bank to linear peptides of the protein M of SARS-CoV Urbani [1]: 0.7; Binding of Control serum LUMC to linear peptides of the protein M of SARS-CoV Urbani [1]: 1.0; Binding of Control serum LUMC to looped peptides of the protein M of SARS-CoV Urbani [1]: 1.0
RWHTMVQTCTPNVTI	0.9	0.9	0.6	0.9	0.5	0.6	
QECVRGTTVLLKEPC	0.9	0.9	1.0	0.8	0.6	0.5	
TINCQDPAGGALIAR	1.3	1.0	0.6	1.0	0.6	0.7	
LVKPTVYVYSRVKNL	0.7	0.8	0.4	0.7			Binding of a rabbit serum to linear peptides [2]: 0.6; Binding of a rabbit serum to looped peptides [2]: 0.9
KLGASQRVGTDSGFA					0.1	0.1	Binding of Control Serum Blood-Bank to Looped peptides of the protein M of SARS-CoV Urbani [1]: 0.8; Binding of Control serum Blood-bank to linear peptides of the protein M of SARS-CoV Urbani [1]: 0.9; Binding of Control serum LUMC to linear peptides of the protein M of SARS-CoV Urbani [1]: 0.9; Binding of Control serum LUMC to looped peptides of the protein M of SARS-CoV Urbani [1]: 0.9
QLFKPLTKKNYSELD					0.3	0.3	Binding of Control Serum Blood-Bank to Looped peptides of the protein X3 of SARS-CoV Urbani [1]: 0.8; Binding of Control serum Blood-bank to linear peptides of the protein X3 of SARS-CoV Urbani [1]: 0.8; Binding of Control serum LUMC to linear peptides of the protein X3 of SARS-CoV Urbani [1]: 0.8; Binding of Control serum LUMC to looped peptides of the protein X3 of SARS-CoV Urbani [1]: 0.8
LGASQRVGTDSGFAA					0.3	0.1	Binding of Control Serum Blood-Bank to Looped peptides of the protein M of SARS-CoV Urbani [1]: 0.6; Binding of Control serum Blood-bank to linear peptides of the protein M of SARS-CoV Urbani [1]: 0.9; Binding of Control serum LUMC to linear peptides of the protein M of SARS-CoV Urbani [1]: 0.5; Binding of Control serum LUMC to looped peptides of the protein M of SARS-CoV Urbani [1]: 0.8
QNSKKTTKLVVILRI	0.7	0.5	0.8	0.7			Recognition of the peptide by the rabbit serum [2]: recognized
EILIIIMRTFRIAIW					0.5	0.3	Binding of Control Serum Blood-Bank to Looped peptides of the protein X3 of SARS-CoV Urbani [1]: 0.6; Binding of Control serum Blood-bank to linear peptides of the protein X3 of SARS-CoV Urbani [1]: 0.8; Binding of Control serum LUMC to linear peptides of the protein X3 of SARS-CoV Urbani [1]: 0.5; Binding of Control serum LUMC to looped peptides of the protein X3 of SARS-CoV Urbani [1]: 0.6
